Reference: the supplement of paper PMC11451515

Test system: SEM cells
Test: cell viability relative to DMSO control; higher = less cytotoxic
Details: 48 h
Method in brief: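 Before seeding, each leukemia line was adapted for at least four passages in each medium. NOMO1 or SEM cells (500 cells/well) and P12-Ichikawa cells (1000 cells/well) went into 1536-well plates at 5 μl, then received library compounds in DMSO by pin dosing across 11 threefold concentrations, 47 μM to 0.79 nM. Readout was CellTiter-Glo One luminescence after 48 h at 37°C, and viability is given as a per-plate percentage of DMSO wells, with cell-free wells as background.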

[1] = HPLM + 10% dialyzed FBS, 0.000781 µM
[2] = HPLM + 10% dialyzed FBS, 0.00234 µM
[3] = HPLM + 10% dialyzed FBS, 0.00702 µM
[4] = HPLM + 10% dialyzed FBS, 0.0211 µM
[5] = HPLM + 10% dialyzed FBS, 0.0632 µM
[6] = HPLM + 10% dialyzed FBS, 0.19 µM
[7] = HPLM + 10% dialyzed FBS, 0.569 µM
[8] = HPLM + 10% dialyzed FBS, 1.71 µM
[9] = HPLM + 10% dialyzed FBS, 5.12 µM
[10] = HPLM + 10% dialyzed FBS, 15.4 µM
[11] = HPLM + 10% dialyzed FBS, 46.1 µM
[12] = RPMI 5 mM glucose + 10% FBS, 0.000781 µM
[13] = RPMI 5 mM glucose + 10% FBS, 0.00234 µM
[14] = RPMI 5 mM glucose + 10% FBS, 0.00702 µM
[15] = RPMI 5 mM glucose + 10% FBS, 0.0211 µM
[16] = RPMI 5 mM glucose + 10% FBS, 0.0632 µM
[17] = RPMI 5 mM glucose + 10% FBS, 0.19 µM
[18] = RPMI 5 mM glucose + 10% FBS, 0.569 µM
[19] = RPMI 5 mM glucose + 10% FBS, 1.71 µM
[20] = RPMI 5 mM glucose + 10% FBS, 5.12 µM
[21] = RPMI 5 mM glucose + 10% FBS, 15.4 µM
[22] = RPMI 5 mM glucose + 10% FBS, 46.1 µM
[23] = RPMI 5 mM glucose + 10% dialyzed FBS, 0.000781 µM
[24] = RPMI 5 mM glucose + 10% dialyzed FBS, 0.00234 µM
[25] = RPMI 5 mM glucose + 10% dialyzed FBS, 0.00702 µM
[26] = RPMI 5 mM glucose + 10% dialyzed FBS, 0.0211 µM
[27] = RPMI 5 mM glucose + 10% dialyzed FBS, 0.0632 µM
[28] = RPMI 5 mM glucose + 10% dialyzed FBS, 0.19 µM
[29] = RPMI 5 mM glucose + 10% dialyzed FBS, 0.569 µM
[30] = RPMI 5 mM glucose + 10% dialyzed FBS, 1.71 µM
[31] = RPMI 5 mM glucose + 10% dialyzed FBS, 5.12 µM
[32] = RPMI 5 mM glucose + 10% dialyzed FBS, 15.4 µM
[33] = RPMI 5 mM glucose + 10% dialyzed FBS, 46.1 µM

In the case of `COc1cc(F)c(F)c(Nc2ccc(I)cc2F)c1N[S+](=O)([O-])C1(C[C@H](O)CO)CC1`, the cell viability [1] is reported as 102%, the cell viability [2] is reported as 108% and the cell viability [3] is reported as 122%. The cell viability [4] was 106%, the cell viability [5] was 111% and the cell viability [6] was 103%. For the same compound, the cell viability [7] was 105%, the cell viability [8] was 89.9% and the cell viability [9] was 117%. The cell viability [10] was 104%, the cell viability [11] was 60.2% and the cell viability [12] was 111%. The cell viability [13] was 109%, the cell viability [14] was 121% and the cell viability [15] was 112%. The cell viability [16] was 119%, the cell viability [17] was 126% and the cell viability [18] was 97.9%. For the same compound, the cell viability [19] was 120%, the cell viability [20] was 109% and the cell viability [21] was 83.6%. For the same compound, the cell viability [22] was 15.3%, the cell viability [23] was 110% and the cell viability [24] was 105%. For the same compound, the cell viability [25] was 115%, the cell viability [26] was 115% and the cell viability [27] was 112%. For the same compound, the cell viability [28] was 117%, the cell viability [29] was 104% and the cell viability [30] was 102%. The cell viability [31] was 106%, the cell viability [32] was 103% and the cell viability [33] was 50.4%.
In the case of `CC(C)(C)OC(=O)N[C@H]1CCCCC/C=C\[C@@H]2C[C@@]2(C(=O)N[S+](=O)([O-])C2CC2)NC(=O)[C@@H]2C[C@@H](OC(=O)N3Cc4cccc(F)c4C3)CN2C1=O`, the cell viability [1] is reported as 71.4%, the cell viability [2] is reported as 83.9% and the cell viability [3] is reported as 83.5%. It also gave a cell viability [4] of 75.7%, a cell viability [5] of 97.3% and a cell viability [6] of 89%. The cell viability [7] was 92.1%, the cell viability [8] was 79.8% and the cell viability [9] was 84%. For the same compound, the cell viability [10] was 86.6%, the cell viability [11] was 80.2% and the cell viability [12] was 96.1%. The cell viability [13] was 99.7%, the cell viability [14] was 84.5% and the cell viability [15] was 73.4%. It also gave a cell viability [16] of 102%, a cell viability [17] of 88.9% and a cell viability [18] of 101%. The cell viability [19] was 103%, the cell viability [20] was 93.4% and the cell viability [21] was 90.2%. It also gave a cell viability [22] of 85.4%, a cell viability [23] of 85.2% and a cell viability [24] of 91.9%. The cell viability [25] was 93.4%, the cell viability [26] was 105% and the cell viability [27] was 94.9%. It also gave a cell viability [28] of 98.5%, a cell viability [29] of 121% and a cell viability [30] of 115%. It also gave a cell viability [31] of 93%, a cell viability [32] of 91.6% and a cell viability [33] of 81.3%.
Compound `COc1ccc([S+](=O)([O-])N(C(C)=O)c2ccccc2/C=C/c2cc[n+]([O-])cc2)cc1` has a cell viability [1] of 124%, a cell viability [2] of 122% and a cell viability [3] of 133%. The cell viability [4] was 141%, the cell viability [5] was 125% and the cell viability [6] was 125%. For the same compound, the cell viability [7] was 124%, the cell viability [8] was 55.4% and the cell viability [9] was 26.1%. It also gave a cell viability [10] of 26.5%, a cell viability [11] of 23% and a cell viability [12] of 122%. It also gave a cell viability [13] of 131%, a cell viability [14] of 115% and a cell viability [15] of 126%. For the same compound, the cell viability [16] was 97.1%, the cell viability [17] was 103% and the cell viability [18] was 111%. It also gave a cell viability [19] of 39.1%, a cell viability [20] of 20.3% and a cell viability [21] of 18.4%. For the same compound, the cell viability [22] was 13.4%.
Work on `CN(C)C1CCN(C(=O)c2ccc(NC(=O)Nc3nc(N4CCOCC4)nc(N4CCOCC4)n3)cc2)CC1` yielded a cell viability [1] of 83.9%, a cell viability [2] of 92.1% and a cell viability [3] of 81.5%. It also gave a cell viability [4] of 67.4%, a cell viability [5] of 61.7% and a cell viability [6] of 49.7%. For the same compound, the cell viability [7] was 41.8%, the cell viability [8] was 31.2% and the cell viability [9] was 30.9%. It also gave a cell viability [10] of 23.8%, a cell viability [11] of 19.3% and a cell viability [12] of 87.9%. For the same compound, the cell viability [13] was 78.9%, the cell viability [14] was 94.3% and the cell viability [15] was 75.1%. The cell viability [16] was 65.3%, the cell viability [17] was 48.4% and the cell viability [18] was 39.3%. It also gave a cell viability [19] of 27.4%, a cell viability [20] of 25.6% and a cell viability [21] of 17.8%. The cell viability [22] was 11.9%, the cell viability [23] was 78.1% and the cell viability [24] was 85.8%. The cell viability [25] was 79.4%, the cell viability [26] was 70.9% and the cell viability [27] was 57.2%. The cell viability [28] was 52.5%, the cell viability [29] was 41.9% and the cell viability [30] was 33.4%. For the same compound, the cell viability [31] was 32.1%, the cell viability [32] was 22% and the cell viability [33] was 14.6%.
For `CC[C@H](/C=C/[C@@H](C)[C@H]1CC[C@H]2[C@@H]3CC=C4C[C@@H](O)CC[C@]4(C)[C@H]3CC[C@]12C)C(C)C`, the cell viability [1] was 100%, the cell viability [2] was 77.3% and the cell viability [3] was 94.8%. It also gave a cell viability [4] of 94.8%, a cell viability [5] of 86.4% and a cell viability [6] of 108%. The cell viability [7] was 81.7%, the cell viability [8] was 100% and the cell viability [9] was 95.3%. For the same compound, the cell viability [10] was 79.1%, the cell viability [11] was 89.3% and the cell viability [12] was 102%. For the same compound, the cell viability [13] was 83.8%, the cell viability [14] was 103% and the cell viability [15] was 95.2%. For the same compound, the cell viability [16] was 101%, the cell viability [17] was 96.8% and the cell viability [18] was 93.3%. It also gave a cell viability [19] of 104%, a cell viability [20] of 105% and a cell viability [21] of 87.4%. The cell viability [22] was 84.2%, the cell viability [23] was 98% and the cell viability [24] was 92.7%. The cell viability [25] was 93.3%, the cell viability [26] was 104% and the cell viability [27] was 111%. For the same compound, the cell viability [28] was 90.6%, the cell viability [29] was 93.5% and the cell viability [30] was 108%. For the same compound, the cell viability [31] was 94.1%, the cell viability [32] was 87.6% and the cell viability [33] was 93.5%.
In the case of `S=C(NCc1ccc2c(c1)OCO2)N1CCN(c2ncnc3c2oc2ccccc23)CC1`, the cell viability [1] is reported as 116%, the cell viability [2] is reported as 120% and the cell viability [3] is reported as 123%. The cell viability [4] was 100%, the cell viability [5] was 129% and the cell viability [6] was 23.2%. It also gave a cell viability [7] of 124%, a cell viability [8] of 124% and a cell viability [9] of 93.7%. For the same compound, the cell viability [10] was 79.4%, the cell viability [11] was 16.7% and the cell viability [23] was 104%. It also gave a cell viability [24] of 103%, a cell viability [25] of 121% and a cell viability [26] of 127%. The cell viability [27] was 134%, the cell viability [28] was 126% and the cell viability [29] was 134%. It also gave a cell viability [30] of 135%, a cell viability [31] of 62.9% and a cell viability [32] of 64.5%. The cell viability [33] was 17.5%.
`Clc1ccc(-c2nc3sccn3c2/C=N/OCc2ccc(Cl)c(Cl)c2)cc1` was tested, and the cell viability [1] was 127%, the cell viability [2] was 122% and the cell viability [3] was 101%. For the same compound, the cell viability [4] was 119%, the cell viability [5] was 124% and the cell viability [6] was 111%. It also gave a cell viability [7] of 115%, a cell viability [8] of 88.5% and a cell viability [9] of 100%. For the same compound, the cell viability [10] was 101%, the cell viability [11] was 117% and the cell viability [23] was 131%. The cell viability [24] was 122%, the cell viability [25] was 111% and the cell viability [26] was 137%. For the same compound, the cell viability [27] was 120%, the cell viability [28] was 134% and the cell viability [29] was 135%. It also gave a cell viability [30] of 104%, a cell viability [31] of 113% and a cell viability [32] of 110%. It also gave a cell viability [33] of 115%.
Compound `COC\1=C(/OC)C(=O)\C(=C(C)/C1=O)CCCCCCCCCCO` has a cell viability [1] of 97.8%, a cell viability [2] of 92% and a cell viability [3] of 92.4%. For the same compound, the cell viability [4] was 120%, the cell viability [5] was 119% and the cell viability [6] was 132%. The cell viability [7] was 133%, the cell viability [8] was 99% and the cell viability [9] was 119%. It also gave a cell viability [10] of 112%, a cell viability [11] of 90.8% and a cell viability [12] of 109%. For the same compound, the cell viability [13] was 109%, the cell viability [14] was 127% and the cell viability [15] was 105%. The cell viability [16] was 132%, the cell viability [17] was 136% and the cell viability [18] was 124%. It also gave a cell viability [19] of 112%, a cell viability [20] of 136% and a cell viability [21] of 123%. For the same compound, the cell viability [22] was 90.6%, the cell viability [23] was 122% and the cell viability [24] was 129%. It also gave a cell viability [25] of 123%, a cell viability [26] of 115% and a cell viability [27] of 129%. For the same compound, the cell viability [28] was 125%, the cell viability [29] was 137% and the cell viability [30] was 113%. For the same compound, the cell viability [31] was 141%, the cell viability [32] was 98.6% and the cell viability [33] was 68.3%.
`CC(C)N[C@@H]1CCn2c(=O)[nH]c3cccc(c32)[C@H]1O` gave a cell viability [1] of 107%, a cell viability [2] of 119% and a cell viability [3] of 101%. The cell viability [4] was 104%, the cell viability [5] was 112% and the cell viability [6] was 108%. It also gave a cell viability [7] of 120%, a cell viability [8] of 112% and a cell viability [9] of 122%. For the same compound, the cell viability [10] was 122%, the cell viability [11] was 100% and the cell viability [23] was 102%. The cell viability [24] was 112%, the cell viability [25] was 113% and the cell viability [26] was 122%. The cell viability [27] was 125%, the cell viability [28] was 123% and the cell viability [29] was 107%. The cell viability [30] was 117%, the cell viability [31] was 101% and the cell viability [32] was 125%. The cell viability [33] was 102%.
